{"source": "patent US20130331345A1", "about": "“PUERARIN HYDRATES, PREPARATION METHODS AND USES THEREOF” (priority 2010, published 2013)", "key": {"[1]": {"experiment": "Accelerated stability test (40° C., RH75%), sealed in penicillin bottles", "type": "physicochemical", "conditions": "accelerated, 40° C.", "description": "The sample of the puerarin hydrate above (prepared by method of Example 1) and anhydrous puerarin (anhydrous puerarin was prepared by: drying the hydrate as prepared in Example 1 at 90-105° C. in the presence of phosphorus pentoxide under vacuum for 24-72 hours or more to obtain an anhydrous puerarin, and the water content of anhydrous puerarin was usually lower than 1.0% as measured by Karl Fisher method) were sealed in penicillin bottles to perform accelerated stability test (chromatography conditions: chromatography column: C18 (150 mm×4.6 mm, 5 μm); mobile phase: 0.1% citric acid solution-methanol (75:25); flow rate: 1 ml/min; temperature: room temperature; detection wavelength: 250 nm). […] Hygroscopicity test was performed according to the Pharmacopoeia of the People's Republic of China: about 5 g of anhydrous puerarin and the crystalline hydrate of the present invention were taken, placed in dry watch glasses with constant weight, weighed precisely. Samples were taken separately at 0 h and 48 h of the test at 25° C. and relative humidity of 75%, and hygroscopicity weight gain percentages were calculated."}, "ACE": {"molecular_target": "T1, ACE (Rattus norvegicus, UniProt P47820)", "T1 construct": "from tissue; host or cells: blood serum of Wistar rats", "T1 sequence (P47820 36-1313)": "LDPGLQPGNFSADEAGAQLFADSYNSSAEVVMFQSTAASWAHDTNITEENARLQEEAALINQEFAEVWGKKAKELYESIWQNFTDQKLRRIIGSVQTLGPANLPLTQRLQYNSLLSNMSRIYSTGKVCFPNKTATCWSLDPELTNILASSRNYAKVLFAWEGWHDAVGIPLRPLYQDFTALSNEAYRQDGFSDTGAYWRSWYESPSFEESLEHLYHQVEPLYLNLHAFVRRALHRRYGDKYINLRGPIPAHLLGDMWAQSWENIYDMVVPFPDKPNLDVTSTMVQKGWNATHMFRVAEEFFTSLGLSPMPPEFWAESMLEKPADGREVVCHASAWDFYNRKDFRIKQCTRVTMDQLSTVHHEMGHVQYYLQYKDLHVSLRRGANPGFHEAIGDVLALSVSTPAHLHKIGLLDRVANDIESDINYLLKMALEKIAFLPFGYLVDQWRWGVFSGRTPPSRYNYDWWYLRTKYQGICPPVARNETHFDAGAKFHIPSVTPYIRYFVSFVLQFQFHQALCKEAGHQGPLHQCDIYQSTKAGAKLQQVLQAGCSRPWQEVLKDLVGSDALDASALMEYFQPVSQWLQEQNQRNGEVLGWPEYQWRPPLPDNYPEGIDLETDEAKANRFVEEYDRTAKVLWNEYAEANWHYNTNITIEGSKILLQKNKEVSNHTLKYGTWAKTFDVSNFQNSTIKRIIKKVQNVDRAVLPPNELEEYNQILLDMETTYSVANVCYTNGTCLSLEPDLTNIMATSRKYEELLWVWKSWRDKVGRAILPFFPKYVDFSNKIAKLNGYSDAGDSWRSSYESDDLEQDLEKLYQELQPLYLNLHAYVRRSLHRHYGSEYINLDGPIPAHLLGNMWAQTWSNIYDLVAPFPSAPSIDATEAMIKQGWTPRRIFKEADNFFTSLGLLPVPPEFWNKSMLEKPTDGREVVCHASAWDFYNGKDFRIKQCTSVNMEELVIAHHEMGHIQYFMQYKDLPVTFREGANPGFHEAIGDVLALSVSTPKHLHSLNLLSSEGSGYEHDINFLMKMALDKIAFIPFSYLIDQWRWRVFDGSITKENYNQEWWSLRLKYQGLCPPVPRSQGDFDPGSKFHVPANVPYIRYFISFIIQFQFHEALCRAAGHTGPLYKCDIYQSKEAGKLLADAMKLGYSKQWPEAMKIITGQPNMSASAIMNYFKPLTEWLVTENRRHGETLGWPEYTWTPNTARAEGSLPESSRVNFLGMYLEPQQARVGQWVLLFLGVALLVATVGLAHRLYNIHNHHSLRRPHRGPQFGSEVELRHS", "experiment": "Effects on inhibiting ACE activity (rat blood serum after intraperitoneal injection)", "type": "in vivo, Wistar rats", "description": "24 Wistar rats, 280-300 g, were randomly divided into 3 groups, 8 rats per group, one group was control group, other two groups were separately 100 mg/kg, 200 mg/kg dose groups (which was added with cosolvent to form an injectable solution), subjected to intraperitoneal injection, the control group was administered with physiological saline. 60 min after administration, the rats were anesthetized with 1% pentobarbital sodium, subjected to thoracotomy and blood sample was taken from heart, the blood sample stood at room temperature for 30 min, centrifuged under 3500 r/min at low temperature for 10 min, the supernatant was taken and stored at about −65° C., for test. Measurement of ACE activity: referring to document [WANG, Fumin, et al, Chinese Journal of Laboratory Medicine, 1983, 6(3):145-151], the results were subjected to statistical treatment: the results were expressed in x±S, and data were subjected to analysis of variance and t-test."}}}
{"compound": "O=c1c(-c2ccc(O)cc2)coc2c([C@@H]3O[C@H](CO)[C@@H](O)[C@H](O)[C@H]3O)c(O)ccc12", "note": "[Sample 1, puerarin monohydrate]", "values": [{"measurement": "Marked content (%)", "setting": "[1]; sampling time 0 month", "result": 99.5, "unit": "%"}, {"measurement": "Property", "setting": "[1]; sampling time 0 month", "result": "off-white powder"}, {"measurement": "Related substance (%)", "setting": "[1]; sampling time 0 month", "result": "<2", "unit": "%"}, {"measurement": "Marked content (%)", "setting": "[1]; sampling time 1 month", "result": 99.3, "unit": "%"}, {"measurement": "Property", "setting": "[1]; sampling time 1 month", "result": "off-white powder"}, {"measurement": "Related substance (%)", "setting": "[1]; sampling time 1 month", "result": "<2", "unit": "%"}, {"measurement": "Marked content (%)", "setting": "[1]; sampling time 2 month", "result": 99.6, "unit": "%"}, {"measurement": "Property", "setting": "[1]; sampling time 2 month", "result": "off-white powder"}, {"measurement": "Related substance (%)", "setting": "[1]; sampling time 2 month", "result": "<2", "unit": "%"}, {"measurement": "Marked content (%)", "setting": "[1]; sampling time 3 month", "result": 99.4, "unit": "%"}, {"measurement": "Property", "setting": "[1]; sampling time 3 month", "result": "off-white powder"}, {"measurement": "Related substance (%)", "setting": "[1]; sampling time 3 month", "result": "<2", "unit": "%"}, {"measurement": "Marked content (%)", "setting": "[1]; sampling time 6 month", "result": 99.3, "unit": "%"}, {"measurement": "Property", "setting": "[1]; sampling time 6 month", "result": "off-white powder"}, {"measurement": "Related substance (%)", "setting": "[1]; sampling time 6 month", "result": "<2", "unit": "%"}, {"measurement": "rat blood serum ACE activity compared with the control group", "setting": "ACE; 100 and 200 mg/kg intraperitoneal, P<0.01", "result": "dose-dependent decrease"}, {"measurement": "inhibition at 100 mg/kg", "setting": "ACE; rat, ip, rats, 100 mg/kg intraperitoneal, vs control group, read-out: inhibition rate (%)", "result": 36.1, "unit": "%"}, {"measurement": "ACE (IU)", "setting": "ACE; rats, 100 mg/kg intraperitoneal, blood taken 60 min after administration", "result": "34.8 ± 6.19", "unit": "IU"}]}
